Data as given in US5045566A, “Novel imidate insecticides” (ICI Americas Inc., priority 1989, dated 1991).

What was measured:
Type in all cases: in vivo
[1] = system: Housefly [Musca domestica]; assay: Housefly contact mortality in dishes (HF), 48 hours; conditions: μg of test compound per 25 female flies
How it was run: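 LC50, as μg compound per 25 female flies, comes from dosage-mortality curves with doses from 100 μg downward. Residues were made by evaporating acetone plus 0.01% peanut oil in dishes, onto which 1-2-day-old females were caged; deaths were counted after 48 hours.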

[2] = system: Black Bean Aphid [Aphis fabae (Scop.)]; assay: Black bean aphid spray test on nasturtium (BBA), 48 hours; conditions: percent of test compound in sprayed solution
How it was run: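 LC50, given as percent test compound in the sprayed liquid, was calculated from dosage-mortality curves using concentrations from 0.05% downward. Sprays in 50:50 acetone-water went to runoff on ~5 cm nasturtiums carrying 25-50 aphids of mixed ages, one day after infestation. Deaths were counted 48 h later under greenhouse conditions.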

[3] = system: Maize weevil [Sitophilus zeamais (Motschulsky)]; assay: Maize weevil on dipped corn seeds (MW), 48 hours; conditions: percent in solution, adult weevils
Protocol: The compounds in Tables 1 and 2 above were tested for insecticidal activity using the following testing procedures. LC50 values, based on the results of these tests and calculated according to dosage-mortality curves, are expressed in Table 3.
Maize weevil [Sitophilus zeamais (Motschulsky)]:
Test compounds were diluted in a 50:50 acetone:water solution. Four corn seeds [Zea mays (L.)] which had been immersed in test solutions for 2-3 seconds and allowed to dry were placed in containers together with 10 adult weevils. The containers were covered and kept at a temperature of about 25° C. Mortality was recorded after 48 hours. Test concentrations ranged from 0.01% down to that at which 50% mortality occurred. The LC50 values are expressed below in Table 3 under the heading "MW" in terms of percent of the test compound in solution.

[4] = system: Cabbage Looper [Trichoplusia ni (Hubner)]; assay: Cabbage looper leaf dip (CL), 3-5 days; conditions: percent in solution, second-instar larvae
How it was run: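 Squash cotyledons dipped in test solution (acetone-water 50-50, ≤0.1%), dried, offered to 5 second-instar larvae; mortality after 3-5 days gives LC50.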

[5] = system: Tobacco Budworm [Heliothis virescens (Fabricius)] eggs; assay: Tobacco budworm eggs (TBW-E); conditions: percent in solution; 2-day old eggs
How it was run: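 Step 1: dip 2-day old egg patches in acetone test solutions (top concentration 0.1%). Step 2: hold in dishes with rearing medium at 78° F. Step 3: record mortality after control hatch and feeding.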

Compound	LC50 HF [1] [µg]	LC50 BBA [2] [%]	LC50 MW [3] [%]	LC50 CL [4] [%]	LC50 TBW E (eggs) [5] [%]
CC(C)C(=Nc1ccc(F)c(Br)c1)OCc1ccc(F)c(Oc2ccc(Cl)cc2)c1 [Compound 379]	< 100	0.0006	> 0.01	0.00075	0.02
CC(C)C(=Nc1cc(F)c(Cl)cc1Cl)OCc1ccc(F)c(Oc2ccc(F)cc2)c1 [Compound 292]	41	–	> 0.01	0.00075	0.05
CC(C)C(=Nc1ccc(OCC(F)(F)F)cc1)OCc1ccc(F)c(Oc2ccccc2)c1 [Compound 422]	< 100	> 0.05	> 0.01	0.00075	0.05
CC(C)C(=Nc1ccc(F)c(Br)c1)OCc1cccc(Oc2ccccc2)n1 [Compound 558]	< 100	0.0012	> 0.01	0.00045	> 0.1
CCCc1ccc(N=C(OCc2ccc(F)c(Oc3ccc(F)cc3)c2)C(C)C)cc1 [Compound 440]	> 100	0.0003	> 0.01	0.002	< 0.1
CCc1ccc(N=C(OCc2cccc(Oc3ccc(Cl)cc3)n2)C(C)C)cc1 [Compound 552]	> 100	0.002	> 0.01	0.0016	> 0.1
Cc1ccc(N=C(OCc2cccc(Oc3ccc(F)cc3)c2)C(C)C)cc1Cl [Compound 402]	< 100	0.0006	> 0.01	> 0.1	> 0.1
Cc1ccc(N=C(OCc2ccc(F)c(Oc3ccc(Cl)cc3)c2)C(C)C)cc1C [Compound 406]	< 100	0.001	> 0.01	> 0.1	< 0.1
CCOc1ccc(N=C(OCc2cccc(Oc3ccccc3)c2)C(C)C)cc1 [Compound 371]	< 100	0.0004	> 0.01	0.0022	> 0.1
Cc1cc(N=C(OCc2ccc(F)c(Oc3ccc(Cl)cc3)c2)C(C)C)ccc1Br [Compound 407]	> 100	0.0007	> 0.01	> 0.1	0.05
CC(C)C(=Nc1ccc(OCC(F)(F)F)c(Cl)c1)OCc1cccc(Oc2ccc(F)cc2)c1 [Compound 420]	> 100	0.004	> 0.01	0.00075	0.05
Fc1ccc(Oc2cccc(COC(=Nc3cccc(C(F)(F)F)c3)C3CC3)c2)cc1 [Compound 294]	> 100	–	> 0.01	0.017	> 0.1
CC(C)C(=Nc1cccc(OC(F)(F)F)c1)OCc1ccc(F)c(Oc2ccc(Cl)cc2)c1 [Compound 436]	< 100	0.0006	> 0.01	–	< 0.1
CC(C)C(=Nc1ccc(F)c(Cl)c1)OCc1cccc(Oc2cccc(Cl)c2)c1 [Compound 203]	43	0.006	> 0.01	0.0025	0.06
CC(C)C(=Nc1ccc(F)c(I)c1)OCc1cccc(Oc2ccc(F)cc2)c1 [Compound 449]	13	–	0.0075	0.0001	0.025
CC(C)C(=Nc1cccc(C(F)(F)F)c1)OCc1ccnc(Oc2ccc(F)cc2)c1 [Compound 508]	> 100	–	> 0.01	0.013	> 0.1
CC(C)C(=Nc1ccc(Br)cc1)OCc1coc(Cc2ccccc2)c1 [Compound 478]	15	–	> 0.01	0.0037	> 0.1
Fc1ccc(COC(=Nc2ccc(C(F)(F)F)cc2)C2CC2)cc1Oc1ccc(Cl)cc1 [Compound 444]	> 100	0.0006	> 0.01	0.00015	–
CC(C)C(=Nc1cccc(C(F)(F)F)c1)OCc1cccc(Oc2ccc(Cl)cc2)n1 [Compound 477]	20	–	0.0076	0.0003	> 0.1

Compound	LC50 HF [1] [µg]	LC50 BBA [2] [%]	LC50 MW [3] [%]	LC50 CL [4] [%]	LC50 TBW E (eggs) [5] [%]
CC(C)C(=Nc1ccc([N+](=O)[O-])c(C(F)(F)F)c1)OCc1cccc(Oc2ccccc2)c1 [Compound 307]	> 100	–	> 0.01	0.002	0.08
CC(C)C(=Nc1cccc(C(F)(F)F)c1)OCc1coc(Cc2ccccc2)c1 [Compound 482]	36	–	> 0.01	0.01	> 0.1
CC(C)C(=Nc1ccc(F)cc1F)OCc1coc(Cc2ccccc2)c1 [Compound 486]	15	–	> 0.01	> 0.1	> 0.1
Fc1ccc(COC(=Nc2ccc(C(F)(F)F)cc2)C2CC2)cc1Oc1ccccc1 [Compound 443]	< 100	0.0003	< 0.01	0.00015	–
CC(C)C(=Nc1ccc(C(C)(C)C)cc1)OCc1ccc(F)c(Oc2ccc(Cl)cc2)c1 [Compound 301]	> 100	–	> 0.01	0.008	> 0.1
CC(C)C(=Nc1ccc2c(c1)OCO2)OCc1coc(Cc2ccccc2)c1 [Compound 483]	6	–	> 0.01	0.001	0.05
CC(C)C(=Nc1ccc(F)c(Br)c1)OCc1ccc(F)c(Oc2ccccc2)c1 [Compound 299]	8	–	> 0.01	0.0005	0.017
CC(C)C(=Nc1cccc([N+](=O)[O-])c1)OCc1cccc(Oc2ccccc2)c1 [Compound 302]	15	–	> 0.01	0.003	> 0.1
Fc1ccc(Oc2cccc(COC(=Nc3ccc(F)c(Cl)c3)C3CC3)c2)cc1 [Compound 116]	15	–	> 0.01	0.00025	–
CC(Br)C(=Nc1ccc2c(c1)OCO2)OCc1cccc(Oc2ccccc2)c1 (centres unmarked) [Compound 306]	> 100	–	> 0.01	0.005	0.1
Cc1c(COC(=Nc2ccc(F)cc2)C(C)C)cccc1-c1ccccc1 [Compound 458]	100	> 0.05	–	0.007	> 0.05
CCCCc1ccc(N=C(OCc2cccc(Oc3ccccc3)c2)C(C)C)cc1 [Compound 152]	> 100	0.01	–	0.009	> 0.1
CC(C)C(=Nc1c(F)c(F)cc(F)c1F)OCc1cccc(Oc2ccc(F)cc2)c1 [Compound 304]	> 100	–	> 0.01	0.0024	> 0.1
CC(C)C(=Nc1ccc(F)c(Cl)c1)OC(C)c1cccc(Oc2ccccc2)n1 (centres unmarked) [Compound 498]	49	> 0.05	–	0.002	> 0.1
Cc1ccc(Cl)cc1N=C(OCc1cccc(Oc2ccccc2)c1)C(C)C [Compound 263]	> 100	> 0.05	–	0.05	> 0.1
CC(C)(Cl)C(=Nc1ccc(Cl)c2ccccc12)OCc1cccc(Oc2ccccc2)c1 [Compound 111]	> 100	0.003	–	0.1	> 0.1
CC(C)C(=Nc1ccc(F)cc1)OCc1cccc(Oc2ccc(F)cc2F)c1 [Compound 206]	50	0.03	–	0.0017	> 0.1
CC(C)(C)C(=Nc1cccc(Cl)c1)OCc1cccc(Oc2ccccc2)c1 [Compound 12]	> 100	> 0.05	–	0.008	> 0.1
